Data on 15 compounds can be found in patent US20080153850A1, “Adamantyl Derivates as P2x7 Receptor Antagonists” (AstraZeneca AB, priority 2004, published 2008).

Usually melting point stands for the temperature, or range, at which the solid turns liquid. By IC50 is commonly meant the concentration needed to halve the response being measured. Read a high IC50 as lower potency.

Counter-ions that a name gives are not always drawn.

System in the first series: not given
Experiment: not given
Details: not given
With `O=C(O)CCOc1ccccc1-c1ccc(Cl)c(C(=O)NCC23CC4CC(CC(C4)C2)C3)c1` [Example 16, 3-[[4′-Chloro-3′-[[(tricyclo[3.3.1.1^3,7]dec-1-ylmethyl)amino]carbonyl][1,1′-biphenyl]-2-yl]oxy]-propanoic acid], the melting point was 163 to 164 °C.
On the same count and under the same terms, the value for `O=C(NCC12CC3CC(CC(C3)C1)C2)c1cc(-c2ccccc2C(=O)O)ccc1Cl` [Example 3, 4′-Chloro-3′-[[(tricyclo[3.3.1.1^3,7]dec-1-ylmethyl)amino]carbonyl]-[1,1′-biphenyl]-2-carboxylic acid] was 228 to 230 °C.
Same read-out and setting: the result for `O=C(NCC12CC3CC(CC(C3)C1)C2)c1cc(-c2cccnc2N2CCCC(C(=O)O)C2)ccc1Cl` (stereo not drawn) [Example 61, 1-[3-[4-Chloro-3-[[(tricyclo[3.3.1.1^3,7]dec-1-ylmethyl)amino]carbonyl]phenyl]-2-pyridinyl]-3-piperidinecarboxylic acid] reads 125 to 130 °C; that for `O=C(O)COc1ncccc1-c1ccc(Cl)c(C(=O)NCC23CC4CC(CC(C4)C2)C3)c1` [Example 28, [[3-[4-Chloro-3-[[(tricyclo[3.3.1.1^3,7]dec-1-ylmethyl)amino]carbonyl]phenyl]-2-pyridinyl]oxy]-acetic acid], 226 to 229 °C.
The same measure, in the same setting: the value for `O=C(O)Cc1ccccc1-c1ccc(Cl)c(C(=O)NCC23CC4CC(CC(C4)C2)C3)c1` [Example 37, 4′-Chloro-3′-[[(tricyclo[3.3.1.1^3,7]dec-1-ylmethyl)amino]carbonyl]-[1,1′-biphenyl]-2-acetic acid] was 200 to 202 °C.
For `Cc1ccc(-c2ccc(Cl)c(C(=O)NCC34CC5CC(CC(C5)C3)C4)c2)nc1C(=O)O` [Example 71, 6-[4-Chloro-3-[[(tricyclo[3.3.1.1^3,7]dec-1-ylmethyl)amino]carbonyl]phenyl]-3-methyl-2-pyridinecarboxylic acid], the melting point was 180 to 185 °C.
In turn, `Cc1ccc(-c2ccccc2C(=O)O)cc1C(=O)NCC12CC3CC(CC(C3)C1)C2` [Example 67, 4′-Methyl-3′-[[(tricyclo[3.3.1.1^3,7]dec-1-ylmethyl)amino]carbonyl]-[1,1′-biphenyl]-2-carboxylic acid] had a melting point of 85 to 92 °C.
The compound `O=C(NCC12CC3CC(CC(C3)C1)C2)c1cc(-c2ccccc2C(=O)O)ncc1Cl` [Example 52, 2-[5-Chloro-4-[[(tricyclo[3.3.1.1^3,7]dec-1-ylmethyl)amino]carbonyl]-2-pyridinyl]-benzoic acid] returned a melting point of 134 to 138 °C.
`CN(CCO)c1nc(-c2ccc(Cl)c(C(=O)NCC34CC5CC(CC(C5)C3)C4)c2)ccc1C(=O)O` [Example 54, 6-[4-Chloro-3-[[(tricyclo[3.3.1.1^3,7]dec-1-ylmethyl)amino]carbonyl]phenyl]-2-[(2-hydroxyethyl)methylamino]-3-pyridinecarboxylic acid] had a melting point of 121 to 124 °C.
The same measure, in the same setting: the result for `CC(=O)Nc1ccc(-c2ccc(Cl)c(C(=O)NCC34CC5CC(CC(C5)C3)C4)c2)c(C)n1` [Example 73, 5-[6-(Acetylamino)-2-methyl-3-pyridinyl]-2-chloro-N-(tricyclo[3.3.1.1^3,7]dec-1-ylmethyl)-benzamide] reads 172 to 177 °C; that for `Cc1nn(C)c(C(=O)O)c1-c1ccc(Cl)c(C(=O)NCC23CC4CC(CC(C4)C2)C3)c1` [Example 56, 4-[4-Chloro-3-[[(tricyclo[3.3.1.1^3,7]dec-1-ylmethyl)amino]carbonyl]phenyl]-1,3-dimethyl-1H-pyrazole-5-carboxylic acid], 207 °C.
On the same count and under the same terms, the value for `O=C(NCC12CC3CC(CC(C3)C1)C2)c1cc(-c2ccc(Cl)cc2C(=O)O)ccc1Cl` [Example 42, 4,4′-Dichloro-3′-[[(tricyclo[3.3.1.1^3,7]dec-1-ylmethyl)amino]carbonyl]-[1,1′-biphenyl]-2-carboxylic acid] was 207 to 210 °C; that for `O=C(NCC12CC3CC(CC(C3)C1)C2)c1cc(-c2nccnc2C(=O)O)ccc1Cl` (as salt: sodium) [Example 6, 3-[4-Chloro-3-[[(tricyclo[3.3.1.1^3,7]dec-1-ylmethyl)amino]carbonyl]phenyl]-2-pyrazinecarboxylic acid, monosodium salt] was 194 to 195 °C (dec.); that for `O=C(NCC12CC3CC(CC(C3)C1)C2)c1cc(-c2ccncc2C(=O)O)ccc1Cl` [Example 70, 4-[4-Chloro-3-[[(tricyclo[3.3.1.1^3,7]dec-1-ylmethyl)amino]carbonyl]phenyl]-3-pyridinecarboxylic acid] was 104 to 107 °C.

A further series concerns the target T1, P2X7 receptor (Homo sapiens, UniProt Q99572).
T1 construct: 200 μl of a suspension of THP-1 cells; endogenous in cells; host or cells: THP-1 cells
T1 sequence (Q99572 1-595): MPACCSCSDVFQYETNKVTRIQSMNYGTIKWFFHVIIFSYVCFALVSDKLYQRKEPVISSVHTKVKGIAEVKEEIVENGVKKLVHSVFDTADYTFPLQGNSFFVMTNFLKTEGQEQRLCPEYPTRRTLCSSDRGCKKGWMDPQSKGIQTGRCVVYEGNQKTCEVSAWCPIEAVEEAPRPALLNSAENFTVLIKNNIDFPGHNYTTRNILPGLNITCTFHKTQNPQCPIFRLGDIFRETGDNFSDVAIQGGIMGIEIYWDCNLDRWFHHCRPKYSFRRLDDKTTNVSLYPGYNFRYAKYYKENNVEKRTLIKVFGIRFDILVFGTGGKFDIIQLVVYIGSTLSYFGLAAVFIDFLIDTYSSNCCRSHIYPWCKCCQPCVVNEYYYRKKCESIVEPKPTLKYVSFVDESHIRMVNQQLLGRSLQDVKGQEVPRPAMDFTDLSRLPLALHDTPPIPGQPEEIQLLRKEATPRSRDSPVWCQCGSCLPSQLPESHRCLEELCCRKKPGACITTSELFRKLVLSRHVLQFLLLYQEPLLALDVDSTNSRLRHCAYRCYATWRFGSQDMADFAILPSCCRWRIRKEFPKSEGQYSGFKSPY
Kind of series: P2X7 receptor antagonist test: bbATP-induced ethidium bromide fluorescence in THP-1 cells. Format: cell-based. The note with it: 10^-5M bbATP agonist, 10^-4M ethidium bromide, 37° C. one hour, negative log of concentration reducing bbATP agonist activity by 50%. As for the experimental part:
Consequently, when the receptor is activated using bbATP in the presence of ethidium bromide (a fluorescent DNA probe), an increase in the fluorescence of intracellular DNA-bound ethidium bromide is observed. The increase in fluorescence can be used as a measure of P2X7 receptor activation and therefore to quantify the effect of a compound on the P2X7 receptor.
In this manner, each of the title compounds of the Examples was tested for antagonist activity at the P2X7 receptor. […] The plate was covered with a plastics sheet and incubated at 37° C. for one hour. The plate was then read in a Perkin-Elmer fluorescent plate reader, excitation 520 nm, emission 595 nm, slit widths: Ex 15 nm, Em 20 nm. For the purposes of comparison, bbATP (a P2X7 receptor agonist) and pyridoxal 5-phosphate (a P2X7 receptor antagonist) were used separately in the test as controls. From the readings obtained, a pIC50 figure was calculated for each test compound, this figure being the negative logarithm of the concentration of test compound necessary to reduce the bbATP agonist activity by 50%.
As for `O=C(O)c1ccc(-c2ccc(Cl)c(C(=O)NCC34CC5CC(CC(C5)C3)C4)c2)cc1` [Example 1, 4′-Chloro-3′-[[(tricyclo[3.3.1.1^3,7]dec-1-ylmethyl)amino]carbonyl]-[1,1′-biphenyl]-4-carboxylic acid], the IC50 was 316 nM.
